In patent publication US7084167B2, “Calcium receptor active molecules and method for preparing same” (Centre National de la Rechereche Scientifique (CNRS), priority 2000, dated 2006):

Tests used:
CaSR = target: T1, CaSR (Rattus norvegicus, UniProt P48442); test: Accumulation of tritiated inositol phosphates in CHO(CaSR) cells; type: cell-based; conditions: for activation at 10 µM / activity at 10 µM: compound 10 μM; for activation at 10 µM: in the presence of 2 mM Ca2+; for activation at 10 µM / activation at 1 µM: CHO(CaSR) cells, read-out: Accumulation of (3H)-IP % of the 10 mM Ca2+ response ± S.E.; for activity at 10 µM: basal level at 2 mM Ca2+ = 100%, read-out: Accumulation of (1H)-IP % of basal level, CHO (CaSR); for activity greater than that of calcium (10 mM) / activation at 1 µM: compound 1 μM
T1 construct: expressed in transfected cells; host or cells: CHO (Chinese hamster ovary) cells, CHO(CaSR)
T1 sequence (P48442 20-1079): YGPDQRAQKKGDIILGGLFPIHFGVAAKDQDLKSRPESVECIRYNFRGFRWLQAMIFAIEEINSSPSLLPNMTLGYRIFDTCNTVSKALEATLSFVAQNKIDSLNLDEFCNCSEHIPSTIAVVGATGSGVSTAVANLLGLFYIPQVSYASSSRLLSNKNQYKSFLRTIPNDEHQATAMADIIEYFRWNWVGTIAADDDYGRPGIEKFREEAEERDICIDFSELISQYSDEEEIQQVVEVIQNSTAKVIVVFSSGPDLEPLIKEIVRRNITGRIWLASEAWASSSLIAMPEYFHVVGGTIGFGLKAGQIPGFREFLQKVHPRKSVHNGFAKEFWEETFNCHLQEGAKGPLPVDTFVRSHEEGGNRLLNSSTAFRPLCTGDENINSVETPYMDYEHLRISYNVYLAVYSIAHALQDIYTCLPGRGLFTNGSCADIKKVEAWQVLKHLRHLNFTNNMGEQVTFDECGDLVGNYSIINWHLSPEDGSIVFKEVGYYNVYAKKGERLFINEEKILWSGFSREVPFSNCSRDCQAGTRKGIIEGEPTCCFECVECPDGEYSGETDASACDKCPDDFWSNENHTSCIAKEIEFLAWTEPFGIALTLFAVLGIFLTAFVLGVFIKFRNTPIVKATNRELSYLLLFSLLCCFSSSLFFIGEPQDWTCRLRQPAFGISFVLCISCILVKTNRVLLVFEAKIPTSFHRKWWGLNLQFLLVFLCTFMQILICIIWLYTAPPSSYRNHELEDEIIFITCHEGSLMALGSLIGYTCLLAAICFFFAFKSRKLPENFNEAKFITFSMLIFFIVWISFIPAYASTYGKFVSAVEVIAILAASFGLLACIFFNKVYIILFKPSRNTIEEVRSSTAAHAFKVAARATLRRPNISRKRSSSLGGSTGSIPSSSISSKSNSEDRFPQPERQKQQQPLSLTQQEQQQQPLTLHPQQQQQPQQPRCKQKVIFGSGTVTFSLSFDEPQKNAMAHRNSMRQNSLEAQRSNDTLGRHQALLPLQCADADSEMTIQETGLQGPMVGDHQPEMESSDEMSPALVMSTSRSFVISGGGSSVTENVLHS
Source text: The complementary DNA encoding rat CaSR has been isolated from a rat striatum cDNA library (Ruat et al, Proc. Natl. Acad. Sci., 1995). This receptor is identical, in terms of its amino acid sequence, to that expressed in the other tissues. Transfected Chinese hamster ovary (CHO) cells expressing rat CaSR (CHO(CaSR)) have been characterized and the chemical signals (second messengers) induced by activation of this receptor have been analyzed. Thus, a biochemical test for measuring the accumulation of tritiated inositol phosphates, [^3H]IPs, in response to activation of the receptor has been developed (Ruat et al, J. Biol. Chem., 1996; Ferry et al, Biochem. Biophys. Res. Common., 1997).
The calcimimetic activity of the compounds was estimated by measuring the accumulation of tritiated inositol phosphates, […] Ca^2+, in CHO(CaSR) cells (Ferry et al, Biochem Biophys Res Commun, 1997).
This activation was compared with that induced by the compound NPS-R-568, a reference calcimimetic used at a concentration of 10 μM (Table 1) (Ferry et al, Biochem Biophys Res Commun, 1997; Nemeth et al, Proc Natl Acad Sci USA, 1997).
The calcimimetic activity of the PHD/AK compounds is compared with that of a reference compound, NPS-R-568, used at the same concentration and under the same experimental conditions. This activity is expressed as a percentage of the activity of 10 mM of Ca^2+. The means±standard errors of the means of 2 to 5 independent manipulations are indicated. The experiments were carried out in the presence of 2 mM of Ca^2+.
(§1) The accumulation of tritiated inositol phosphates is expressed as a percentage of the basal level observed in the presence of 2 mM Ca^2+ (100%) in CHO (WT^+) or CHO(CaSR) cells.

CHO (WT*) cells = test: Accumulation of tritiated inositol phosphates in control CHO(WT*) cells not expressing the CaSR; type: cell-based, Chinese hamster; conditions: Cricetulus griseus, 1 h; compound 10 μM; basal level at 2 mM Ca2+ = 100%; read-out: Accumulation of (3H)-IP % of basal level, CHO (WT*)
Method: as §1

[1] = target: T2, receptors of the parathyroid (Rattus norvegicus, UniProt P48442); conditions: rats; cited from earlier work
T2 construct: from tissue; host or cells: parathyroid gland of rats (in vivo)
T2 sequence (P48442 20-1079): T1 sequence (P48442 20-1079)

[2] = patients (men) suffering from chronic renal failure; cited from earlier work
[3] = clinical trials phase I-II; cited from earlier work
[4] = rats; cited from earlier work
[5] = oral, menopausal women with primary hyperparathyroidism; cited from earlier work

activation at 10 µM (CaSR) [%] | activity at 10 µM (CaSR) [%] | activity greater than that of calcium (10 mM) (CaSR) | activation at 1 µM (CaSR) [%] | Compound | activity at 10 µM (CHO (WT*) cells) [%] | further results
87 ± 7 | 420 ± 70 | – | – | CC(NCc1cc2cc(F)ccc2[nH]1)c1cccc2ccccc12 (stereo not drawn) [PHD 361] | 133 ± 3 | –
90 to 100 | 444 ± 101 | 50% | 69 ± 9 | CC(NCc1cc2ccccc2[nH]1)c1cccc2ccccc12.Cl.Cl (stereo not drawn) [PHD 337] | 147 ± 14 | –
32 ± 5 | 225 ± 7 | – | 3 ± 2 | C[C@H](NCc1cc2ccccc2[nH]1)c1cccc2ccccc12 [PHD 337-S] | 132 ± 1 | –
54 ± 5 | 202 ± 9 | – | – | COc1ccc(S(=O)(=O)n2c(CNC(C)c3cccc4ccccc34)cc3ccccc32)cc1OC (stereo not drawn) [PHD 338] | 111 ± 10 | –
79 ± 13 | 401 ± 16 | – | – | CC(NCc1cc2ccccc2n1C)c1cccc2ccccc12 (stereo not drawn) [AK 43] | 109 ± 2 | –
– | 588 ± 129 | 50% | 73 ± 10 | C[C@@H](NCc1cc2ccccc2[nH]1)c1cccc2ccccc12.Cl.Cl [PHD 337-R, (R)-N-[(indole-2-yl)methyl]-N-[1-(1-naphthyl)ethyl]amine.HCl] | 130 ± 9 | melting point: 204 °C

More lines, now with the values behind:

Compound | activation at 10 µM (CaSR) [%] | activity at 10 µM (CaSR) [%] | activity greater than that of calcium (10 mM) (CaSR) | activation at 1 µM (CaSR) [%] | activity at 10 µM (CHO (WT*) cells) [%] | further results
COc1cccc([C@@H](C)NCCCc2ccccc2)c1 [NPS R-467] | – | – | – | – | – | selectivity, receptors of the parathyroid compared with those of the thyroid gland [1]: more selective
COc1cccc([C@@H](C)NCCCc2ccccc2Cl)c1.Cl [NPS R-568] | 106 ± 15 | 454 ± 33 | – | – | 110 ± 9 | PTH concentrations [2]: reduces PTH concentrations; bioavailability [3]: low; osteitis fibrosa [4]: reduces or eliminates osteitis fibrosa; concentrations of PTH [5]: lower; concentrations of free serum Ca2+ ions [5]: lower
CC(NCc1cc2cc(Cl)ccc2[nH]1)c1cccc2ccccc12.Cl.Cl (stereo not drawn) [PHD 363] | 60 ± 1 | 325 ± 67 | less active | 6 ± 3 | 125 ± 12 | –
COc1ccc2[nH]c(CNC(C)c3cccc4ccccc34)cc2c1 (stereo not drawn) [PHD 359] | 55 ± 5 | 303 ± 42 | – | – | 117 ± 8 | –
COc1cccc([C@@H](C)NCc2cc3ccccc3[nH]2)c1 [PHD 356] | 90 to 100 | 482 ± 58 | 50% | 76 ± 1 | 151 ± 7 | –
CC(NCC1Cc2ccccc2N1)c1cccc2ccccc12 (stereo not drawn) [PHD 368] | 77 ± 1 | 388 ± 85 | – | – | 126 ± 6 | –
